Experimental data from ChEMBL document CHEMBL1128725, “Design and synthesis of 1-heteroaryl-3-(1-benzyl-4-piperidinyl)propan-1-one derivatives as potent, selective acetylcholinesterase inhibitors” (J Med Chem, 1995).

Legend:
[1] = molecular target: Acetylcholinesterase (Homo sapiens, UniProt P22303)
Description: Concentration required to inhibit 50% of Acetylcholinesterase obtained from human erythrocytes was determined in vitro

[2] = molecular target: Cholinesterase (Homo sapiens, UniProt P06276)
Cholinesterase, sequence (P06276 whole entry): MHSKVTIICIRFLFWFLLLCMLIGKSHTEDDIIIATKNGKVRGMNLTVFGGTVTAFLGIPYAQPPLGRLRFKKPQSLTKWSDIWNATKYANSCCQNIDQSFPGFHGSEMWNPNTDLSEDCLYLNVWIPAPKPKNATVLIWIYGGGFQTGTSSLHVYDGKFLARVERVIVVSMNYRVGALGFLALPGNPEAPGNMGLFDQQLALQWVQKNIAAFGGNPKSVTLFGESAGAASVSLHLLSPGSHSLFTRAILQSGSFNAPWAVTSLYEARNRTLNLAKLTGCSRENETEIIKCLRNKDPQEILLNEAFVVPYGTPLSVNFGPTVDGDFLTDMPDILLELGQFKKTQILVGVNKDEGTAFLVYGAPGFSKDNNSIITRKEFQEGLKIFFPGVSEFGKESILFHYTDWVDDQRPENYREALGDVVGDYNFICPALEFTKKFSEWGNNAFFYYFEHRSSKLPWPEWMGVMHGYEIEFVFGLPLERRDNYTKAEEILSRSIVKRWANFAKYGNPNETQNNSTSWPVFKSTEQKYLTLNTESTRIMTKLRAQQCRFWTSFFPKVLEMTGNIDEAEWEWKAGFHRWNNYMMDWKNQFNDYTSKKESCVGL
Description: Concentration required to inhibit 50% of Butyrylcholinesterase obtained from human serum was determined in vitro

Acetylcholinesterase, sequence (P22303 whole entry): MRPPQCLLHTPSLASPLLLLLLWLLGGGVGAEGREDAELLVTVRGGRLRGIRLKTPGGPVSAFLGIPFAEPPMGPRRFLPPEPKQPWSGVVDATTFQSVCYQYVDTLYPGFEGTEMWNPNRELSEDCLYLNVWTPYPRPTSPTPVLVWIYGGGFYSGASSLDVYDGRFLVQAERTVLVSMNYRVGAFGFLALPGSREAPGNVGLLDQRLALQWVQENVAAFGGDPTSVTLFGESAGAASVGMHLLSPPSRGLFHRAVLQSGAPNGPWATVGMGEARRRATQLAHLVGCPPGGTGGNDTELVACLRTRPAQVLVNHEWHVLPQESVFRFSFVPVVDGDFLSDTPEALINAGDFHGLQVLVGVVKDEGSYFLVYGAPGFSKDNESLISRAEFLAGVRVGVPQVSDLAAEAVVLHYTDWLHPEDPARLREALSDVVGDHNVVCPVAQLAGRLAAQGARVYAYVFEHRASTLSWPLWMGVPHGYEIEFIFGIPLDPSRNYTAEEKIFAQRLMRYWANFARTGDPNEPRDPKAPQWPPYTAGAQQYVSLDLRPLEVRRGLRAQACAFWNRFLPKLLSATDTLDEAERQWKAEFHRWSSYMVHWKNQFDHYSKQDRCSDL

SMILES	IC50 [1]	IC50 [2]
O=C(CCC1CCN(Cc2ccccc2)CC1)c1ccc2[nH]c(-c3ccccc3)nc2c1	33 nM	0.89 µM
Cc1nc2cc(C(=O)CCC3CCN(Cc4ccccc4)CC3)ccc2[nH]1	12 nM	6.2 µM
Cc1nc2ccc(C(=O)CCC3CCN(Cc4ccccc4)CC3)cc2s1	6.8 nM	3.4 µM
O=C(CCC1CCN(Cc2ccccc2)CC1)c1ccccc1	–	4.3 µM
CCn1c(C)nc2cc(C(=O)CCC3CCN(Cc4ccccc4)CC3)ccc21	4.3 nM	4.2 µM
O=C(CCC1CCN(Cc2ccccc2)CC1)c1ccc2c(c1)OCCO2	30 nM	4.8 µM
